Reference: paper PMC9387934, “Randomized single oral dose phase 1 study of safety, tolerability, and pharmacokinetics of Iminosugar UV-4 Hydrochloride (UV-4B) in healthy subjects” (PLoS Neglected Tropical Diseases, 2022)
Read-outs that look alike come from different tables or passages of the source.

Assay: Phase 1a single ascending dose study: UV-4 plasma concentrations and PK parameters (LC-MS/MS, noncompartmental)
Assay type: in vivo
Settings: for Tmax / half-life / AUC(0-inf) / Cmax: both sexes, human, plasma; for AUC(0-inf): read-out: AUC(0-inf); for Cmax: read-out: Cmax
Protocol: UV-4 ((2R,3R,4R,5S)-2-(hydroxymethyl)-1-(9-methoxynonyl)piperidine-3,4,5-triol, also called N-(9’-methoxynonyl)-1-deoxynojirimycin, or MON-DNJ) hydrochloride was evaluated in a first-in-human, randomized, single-center, double-blind, placebo-controlled, parallel group, single ascending dose Phase 1a clinical trial in healthy subjects (Figs 1 and 2, ClinicalTrials.gov Identifier NCT02061358 https://clinicaltrials.gov/ct2/show/NCT02061358). The primary objective was to determine the safety and tolerability of a single-ascending oral dose of UV-4 hydrochloride (Fig 3). […] The secondary objective was to determine PK parameters describing absorption and elimination of UV-4 following a single oral dose of UV-4 hydrochloride. Eight cohorts of eight subjects each were enrolled and completed the study. In each cohort, six subjects received UV-4 as the hydrochloride; two received placebo. Subjects were screened against study eligibility criteria up to four weeks (Days -28 to -2) before admission to the clinic (Day -1). Dosing was performed on an inpatient basis. Subjects remained in clinic for 48 hours post-dosing for PK sample collection and safety assessments and were discharged from the clinic on Day 3. Subjects returned to the clinic on Day 4 for additional safety assessments, then again on Day 9 ± 1 for a final follow-up visit.
Eligible subjects were healthy males and females, age 18–45 years, with a body mass index between 18 and 30 kg/m^2 inclusive and a minimum body weight of 60 kg. Subjects were considered healthy based on medical history, physical exam, vital signs, 12-lead electrocardiogram (ECG), clinical laboratory tests (hematology, blood chemistry, urinalysis), viral serology, and drug and alcohol screening. Male and female subjects of childbearing potential were required to use adequate contraception over the course of the clinical trial. […] Only subjects who met all inclusion and none of the exclusion criteria prior to administration of the investigational product were enrolled into the study (no exemptions were granted). A total of 64 subjects were enrolled (eight cohorts of eight subjects each). In each of the eight cohorts, six subjects were randomized to receive a single dose of UV-4 (3 to 1000 mg, depending on cohort) as the hydrochloride salt, and two subjects to receive placebo. Cohort size of six active subjects was based on analysis that increasing cohort size above six in a first-in-human study gains little in the ability to observe a drug induced event, and results in observing more events that are not related to study drug. Two of the eight subjects in each cohort (sentinel subjects; one active and one placebo) received their doses at least 48 h before the remaining subjects in each cohort.
On each day of use, bulk drug substance (UV-4B for solubilization, SAI Life Sciences Ltd. Telangana, India) was removed from a single-use container, weighed at the study center, and solubilized in 20 mL sterile water for injection (SWFI) (Hospira Inc. Illinois, United States of America). Weight of solid drug substance was converted to dose of UV-4 by applying purity and salt correction factor per pharmacy manual when preparing the dosing solution. UV-4B solution was administered orally with 10 mL of taste-masking agent, OraSweet-SF (Paddock Laboratories LLC, Minneapolis, United States of America) in a total volume of 30 mL, to assist in maintaining study blinding. Placebo was SWFI (20 mL) plus OraSweet-SF (10 mL). Concentrations and doses were calculated and expressed as the active free base form, UV-4. This methodology is consistent with USP<1121>, which recommends that the strength of a drug product or preparation is expressed in terms of the active moiety. Following consumption of active or placebo solution, the dosing container was rinsed with 50 mL of tap water also consumed by subjects. […]

[1] = po, 3 mg, 3 mg single oral dose, Ar Mean

## COCCCCCCCCCN1C[C@H](O)[C@@H](O)[C@H](O)[C@H]1CO [UV-4, N-(9’-methoxynonyl)-1-deoxynojirimycin]
3 mg, 5 of 6 subjects
  Time over which UV-4 plasma concentrations were quantifiable: 24 h
3 mg, one subject
  Time over which UV-4 plasma concentrations were quantifiable: 36 h
oral, 3 to 1000 mg UV-4 dose range, read-out: Median time to reach maximum plasma concentration (tmax), range across dose groups
  Tmax: 0.5 to 1 h
oral, Phase 1a study, 3 to 1000 mg, read-out: Mean half-life, range across dose groups
  half-life: 8.14 to 12 h
[1]
  AUC(0-inf): 95.6 ng·h/mL
  Cmax: 22.4 ng/mL
po, 3 mg, 3 mg single oral dose, Ar Mean, read-out: t1/2 (converted)
  half-life: 10.7 h
po, 3 mg, 3 mg single oral dose, Arithmetic Mean
  AUC(0-inf): 95.6 ng·h/mL
po, 3 mg, 3 mg single oral dose, Geo Mean
  Cmax: 22.1 ng/mL
po, 3 mg, 3 mg single oral dose, Geo Mean, read-out: t1/2 (converted)
  half-life: 10.3 h
po, 3 mg, 3 mg single oral dose, Geometric Mean
  AUC(0-inf): 94.6 ng·h/mL
po, 3 mg, 3 mg single oral dose, median, read-out: tmax
  Tmax: 0.5 h
po, 10 mg, 10 mg single oral dose, Ar Mean
  Cmax: 84.6 ng/mL
po, 10 mg, 10 mg single oral dose, Ar Mean, read-out: t1/2 (converted)
  half-life: 12 h
po, 10 mg, 10 mg single oral dose, Arithmetic Mean
  AUC(0-inf): 431 ng·h/mL
po, 10 mg, 10 mg single oral dose, Geo Mean
  Cmax: 82.6 ng/mL
po, 10 mg, 10 mg single oral dose, Geo Mean, read-out: t1/2 (converted)
  half-life: 11.9 h
po, 10 mg, 10 mg single oral dose, Geometric Mean
  AUC(0-inf): 420 ng·h/mL
po, 10 mg, 10 mg single oral dose, median, read-out: tmax
  Tmax: 1 h
po, 30 mg, 30 mg single oral dose, Ar Mean
  Cmax: 292 ng/mL
po, 30 mg, 30 mg single oral dose, Ar Mean, read-out: t1/2 (converted)
  half-life: 10 h
po, 30 mg, 30 mg single oral dose, Arithmetic Mean
  AUC(0-inf): 1260 ng·h/mL
po, 30 mg, 30 mg single oral dose, Geo Mean
  Cmax: 289 ng/mL
po, 30 mg, 30 mg single oral dose, Geo Mean, read-out: t1/2 (converted)
  half-life: 10 h
po, 30 mg, 30 mg single oral dose, Geometric Mean
  AUC(0-inf): 1260 ng·h/mL
po, 30 mg, 30 mg single oral dose, median, read-out: tmax
  Tmax: 0.5 h
po, 90 mg, 90 mg single oral dose, Ar Mean
  Cmax: 946 ng/mL
po, 90 mg, 90 mg single oral dose, Ar Mean, read-out: t1/2 (converted)
  half-life: 10.4 h
po, 90 mg, 90 mg single oral dose, Arithmetic Mean
  AUC(0-inf): 3730 ng·h/mL
po, 90 mg, 90 mg single oral dose, Geo Mean
  Cmax: 900 ng/mL
po, 90 mg, 90 mg single oral dose, Geo Mean, read-out: t1/2 (converted)
  half-life: 10.2 h
po, 90 mg, 90 mg single oral dose, Geometric Mean
  AUC(0-inf): 3700 ng·h/mL
po, 90 mg, 90 mg single oral dose, median, read-out: tmax
  Tmax: 0.5 h
po, 180 mg, 180 mg single oral dose, Ar Mean
  Cmax: 2150 ng/mL
po, 180 mg, 180 mg single oral dose, Ar Mean, read-out: t1/2 (converted)
  half-life: 8.7 h
po, 180 mg, 180 mg single oral dose, Arithmetic Mean
  AUC(0-inf): 7110 ng·h/mL
po, 180 mg, 180 mg single oral dose, Geo Mean
  Cmax: 2060 ng/mL
po, 180 mg, 180 mg single oral dose, Geo Mean, read-out: t1/2 (converted)
  half-life: 8.7 h
po, 180 mg, 180 mg single oral dose, Geometric Mean
  AUC(0-inf): 7090 ng·h/mL
po, 180 mg, 180 mg single oral dose, median, read-out: tmax
  Tmax: 0.8 h
po, 360 mg, 360 mg single oral dose, Ar Mean
  Cmax: 4570 ng/mL
po, 360 mg, 360 mg single oral dose, Ar Mean, read-out: t1/2 (converted)
  half-life: 8.1 h
po, 360 mg, 360 mg single oral dose, Arithmetic Mean
  AUC(0-inf): 13800 ng·h/mL
po, 360 mg, 360 mg single oral dose, Geo Mean
  Cmax: 4490 ng/mL
po, 360 mg, 360 mg single oral dose, Geo Mean, read-out: t1/2 (converted)
  half-life: 8.1 h
po, 360 mg, 360 mg single oral dose, Geometric Mean
  AUC(0-inf): 13700 ng·h/mL
po, 360 mg, 360 mg single oral dose, median, read-out: tmax
  Tmax: 0.5 h
po, 720 mg, 720 mg single oral dose, Ar Mean
  Cmax: 9920 ng/mL
po, 720 mg, 720 mg single oral dose, Ar Mean, read-out: t1/2 (converted)
  half-life: 8.2 h
po, 720 mg, 720 mg single oral dose, Arithmetic Mean
  AUC(0-inf): 32900 ng·h/mL
po, 720 mg, 720 mg single oral dose, Geo Mean
  Cmax: 9760 ng/mL
po, 720 mg, 720 mg single oral dose, Geo Mean, read-out: t1/2 (converted)
  half-life: 8.2 h
po, 720 mg, 720 mg single oral dose, Geometric Mean
  AUC(0-inf): 32800 ng·h/mL
po, 720 mg, 720 mg single oral dose, median, read-out: tmax
  Tmax: 0.8 h
po, 1000 mg, 1000 mg single oral dose, Ar Mean
  Cmax: 13100 ng/mL
po, 1000 mg, 1000 mg single oral dose, Ar Mean, read-out: t1/2 (converted)
  half-life: 8.8 h
po, 1000 mg, 1000 mg single oral dose, Arithmetic Mean
  AUC(0-inf): 43100 ng·h/mL
po, 1000 mg, 1000 mg single oral dose, Geo Mean
  Cmax: 13000 ng/mL
po, 1000 mg, 1000 mg single oral dose, Geo Mean, read-out: t1/2 (converted)
  half-life: 8.6 h
po, 1000 mg, 1000 mg single oral dose, Geometric Mean
  AUC(0-inf): 42800 ng·h/mL
po, 1000 mg, 1000 mg single oral dose, median, read-out: tmax
  Tmax: 1 h
Doses of 10 mg or higher, entire collection interval
  Time over which UV-4 plasma concentrations were quantifiable: 48 h
